The record followed here is patent US4137313A, “2,5-Dihydro-1,2-thiazino(5,6-b)indole-3-carboxamide-1,1-dioxides and salts thereof” (Boehringer Ingelheim GmbH, priority 1977, dated 1979).

Data set [1] concerns male and female mice. Put plainly: Determination of acute toxicity, oral administration. Format: in vivo. The following applies: 1 000 mgm/kg oral, 10 mice; for Dead animals within observation period 1 day: within 1 day; for Dead animals within observation period 7 days: within 7 days; for Dead animals within observation period 14 days: within 14 days. As for the experimental part:
(b) Determination of Acute Toxicity
The acute toxicity was determined in male and female mice after oral administration of the test compound as a suspension in tylose.

Data set [2] has as its system platelet aggregation in platelet-enriched plasma of healthy humans. The experiment in a line: BORN-Test, collagen-induced platelet aggregation. Format: cell-based. To be noted: Homo sapiens, vs control, read-out: % decrease in aggregation; for inhibition at 20 µM: 2 × 10^-5 Mol/liter; for inhibition at 2 µM: 2 × 10^-6 Mol/liter; for inhibition at 100 µM: 1 × 10^-4 Mol/liter; for inhibition at 10 µM: 1 × 10^-5 Mol/liter. Here is the method:
(a) BORN-Test, Collagen-Induced Aggregation
The platelet aggregation was measured according to the method of BORN and CROSS (J. Physiol. 170, pp. 397 [1964]) in platelet-enriched plasma of healthy humans. The decrease in the optical density of the platelet suspension after addition of collagen was measured and registered photometrically. From the angle of inclination of the density curve the rate of aggregation can be determined. […] The quantity of collagen was chosen so that it produced an irreversible control curve.
The indicated values refer to the optical density and signify the percentage change in the light transmission (=% decrease in aggregation) under the influence of the test compound in comparision to the control.
Commercial collagen manufactured by Hormon-Chemie, Munich, Germany, was used.

Turning to `CN1C(C(=O)Nc2nccs2)=C(O)c2c(c3ccccc3n2C)S1(=O)=O` [A, 2,5-dihydro-2,5-dimethyl-4-hydroxy-N-(2-thiazolyl)-1,2-thiazino[5,6-b]indole-3-carboxamide-1,1-dioxide], in data set [1], the “Dead animals within observation period 1 day” value is on record as 0, the “Dead animals within observation period 7 days” value came out at 0 and the “Dead animals within observation period 14 days” value was found to be 0. For the same compound, in data set [2], the inhibition at 20 µM was 96% and the inhibition at 2 µM amounted to 81%.

With `Cc1csc(NC(=O)C2=C(O)c3c(c4ccccc4n3C)S(=O)(=O)N2C)n1` [B, 2,5-dihydro-2,5-dimethyl-4-hydroxy-N-(4-methyl-2-thiazolyl)-1,2-thiazino[5,6-b]indole-3-carboxamide-1,1-dioxide], in data set [1], the “Dead animals within observation period 1 day” value turned out to be 0, the “Dead animals within observation period 7 days” value turned out to be 0 and the “Dead animals within observation period 14 days” value amounted to 0. Further, in data set [2], the inhibition at 20 µM was determined as 100% and the inhibition at 2 µM was 97%. The inhibition at 0.2 µM in data set [2] (2 × 10^-7 Mol/liter) stood at 42%.

Turning to `Cc1nc(NC(=O)C2=C(O)c3c(c4ccccc4n3C)S(=O)(=O)N2C)sc1C` [C, 2,5-dihydro-2,5-dimethyl-N-(4,5-dimethyl-2-thiazolyl)-4-hydroxy-1,2-thiazino[5,6-b]indole-3-carboxamide-1,1-dioxide], in data set [2], the inhibition at 20 µM turned out to be 89% and the inhibition at 2 µM is 82%.

On to `Cc1cccc(NC(=O)C2=C(O)c3c(c4ccccc4n3C)S(=O)(=O)N2C)n1` [D, 2,5-dihydro-2,5-dimethyl-4-hydroxy-N-(6-methyl-2-pyridyl)-1,2-thiazino[5,6-b]indole-3-carboxamide-1,1-dioxide], for which, in data set [1], the “Dead animals within observation period 1 day” value was found to be 0, the “Dead animals within observation period 7 days” value came to 0 and the “Dead animals within observation period 14 days” value came out at 0. In addition, the inhibition at 50 µM in data set [2] (5 × 10^-5 Mol/liter) was found to be 86%. Also, in data set [2] (5 × 10^-6 Mol/liter), the inhibition at 5 µM was 60%.

As for `CN1C(C(=O)Nc2nccs2)=C(O)c2c(c3cc(Cl)ccc3n2C)S1(=O)=O` [E, 8-chloro-2,5-dihydro-2,5-dimethyl-4-hydroxy-N-(2-thiazolyl)-1,2-thiazino[5,6-b]indole-3-carboxamide-1,1-dioxide], in data set [1], the “Dead animals within observation period 1 day” value was 0, the “Dead animals within observation period 7 days” value is given as 0 and the “Dead animals within observation period 14 days” value is given as 0. Further, in data set [2], the inhibition at 100 µM is 100% and the inhibition at 10 µM is 86%. Moreover, the inhibition at 1 µM in data set [2] (1 × 10^-6 Mol/liter) is 27%.

`COc1ccc2c(c1)c1c(n2C)C(O)=C(C(=O)Nc2ccccn2)N(C)S1(=O)=O` [F, 2,5-dihydro-2,5-dimethyl-4-hydroxy-8-methoxy-N-(2-pyridyl)-1,2-thiazino[5,6-b]indole-3-carboxamide-1,1-dioxide]: in data set [2], the inhibition at 100 µM was found to be 85% and the inhibition at 10 µM amounted to 43%.
